Measurements reported in patent US20170067894A1 (priority 2014, published 2017).
Like-named read-outs stand apart in the source and are kept apart here.

Key:
[1] = molecular target: LuxR of Vibrio fischeri (Aliivibrio fischeri, UniProt P12746, DEL21-21/INS42T/N22A/N23Y); assay type: cell-based; settings: for induction of luminescence (LuxR activation) compared to 2-AA: 50 μM, 20 h of incubation, FIG. 10
[2] = system: LuxR-regulated luminescence of Vibrio fischeri MJ-1; assay type: cell-based

Sequence of LuxR of Vibrio fischeri (P12746 with tags, fused parts or gaps DEL21-21/INS42T/N22A/N23Y): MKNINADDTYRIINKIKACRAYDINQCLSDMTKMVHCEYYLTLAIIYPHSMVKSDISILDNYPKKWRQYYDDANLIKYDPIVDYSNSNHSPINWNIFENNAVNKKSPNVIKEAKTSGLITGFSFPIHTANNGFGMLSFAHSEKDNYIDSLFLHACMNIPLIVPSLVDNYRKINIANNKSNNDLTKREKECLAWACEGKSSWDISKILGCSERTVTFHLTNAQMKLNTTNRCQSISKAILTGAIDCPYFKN

| Structure (SMILES) | induction of luminescence (LuxR activation) compared to 2-AA [1] | also measured |
| --- | --- | --- |
| Nc1ccccc1C=O [2-aminobenzaldehyde] | completely abolished the induction of luminescence | – |
| O=C(C[N+](=O)[O-])c1ccccc1 [2-nitroacetophenone] | could also activate LuxR, but to a lesser extent than 2-AA | dose dependency of LuxR activation ([1]; 1-50 μM): no dose dependency; synergistic effects in the presence of AHL ([1]; 1-50 μM): no dose dependency or synergistic effects in the presence of AHL were observed |
| CC(=O)c1cccc(N)c1 [3-aminoacetophenone] | completely abolished the induction of luminescence | – |
| CCCC(=O)CC(=O)N[C@H]1CCOC1=O [3-oxo-C6-HSL] | – | affinity towards LuxR relative to 2-AA ([1]; as apparent from FIGS. 4 through 9): approximately three orders of magnitude higher; luminescence of V. fischeri MJ-1 ([2]; 10 nM, FIG. 6): significant increase; luminescence of V. fischeri MJ-1 ([2]; two repeats of the experiment (data not shown)): no luminescence was measured |
| CC(=O)c1ccc(N)cc1 [4-aminoacetophenone] | completely abolished the induction of luminescence | – |
| CC(=O)c1ccccc1 [acetophenone] | completely abolished the induction of luminescence | – |
| Nc1ccccc1C(=O)O [anthranilic acid] | completely abolished the induction of luminescence | – |
| COC(=O)c1ccccc1N [methyl anthranilate] | completely abolished the induction of luminescence | – |
